Consider five cell lines from the supplement of paper PMC10307832.

Common to all, as to experiment: relative viability (nuclei count vs DMSO), 5 days (fraction); higher = more cells survive
Compound in the experiment “BAM7 + Pictilisib”: CCOC1=CC=CC=C1N=NC2=C(NN(C2=O)C3=NC(=CS3)C4=CC=CC=C4)C [BAM7] + CS(=O)(=O)N1CCN(Cc2cc3nc(-c4cccc5[nH]ncc45)nc(N4CCOCC4)c3s2)CC1 [Pictilisib] (partner 1 µM)
In a few lines: (§1)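 Medians of duplicate plates are given as relative viability. That measure is the nuclei count in treated wells divided by the count in vehicle wells. Counts were taken on 4× images of lung cancer cell lines in 1536-well plates, 5 days after pin-tool dosing the day after seeding with one drug alone or a fixed anchor-drug dose plus five library-drug doses (not always all listed) in √10 steps.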

Compound in the experiment “BAM7 + Bortezomib”: CCOC1=CC=CC=C1N=NC2=C(NN(C2=O)C3=NC(=CS3)C4=CC=CC=C4)C [BAM7] + CC(C)C[C@H](NC(=O)[C@H](Cc1ccccc1)NC(=O)c1cnccn1)B(O)O [Bortezomib] (partner 0.002 µM)
In a few lines: as §1

Compound in the experiment “BAM7 + Olaparib”: CCOC1=CC=CC=C1N=NC2=C(NN(C2=O)C3=NC(=CS3)C4=CC=CC=C4)C [BAM7] + O=C(c1cc(Cc2n[nH]c(=O)c3ccccc23)ccc1F)N1CCN(C(=O)C2CC2)CC1 [Olaparib] (partner 8 µM)
In a few lines:
as §1

Compound in experiment [1]: CCn1c(-c2nonc2N)nc2c(C#CC(C)(C)O)ncc(OC[C@H]3CCCNC3)c21 + Cc1nc(Nc2ncc(C(=O)Nc3c(C)cccc3Cl)s2)cc(N2CCN(CCO)CC2)n1 [Dasatinib] (partner 0.075 µM)
In a few lines:
as §1

On to NCI-H2228, for which the relative viability with BAM7 + Pictilisib (first compound 0.5 µM) amounted to 0.407; with BAM7 + Pictilisib (first compound 5 µM), 0.429; with BAM7 + Pictilisib (first compound 15.81 µM) it was 0.34; with BAM7 + Pictilisib (first compound 50 µM) it was 0.429; with BAM7 + Bortezomib (first compound 0.5 µM) it was 1.31; with BAM7 + Bortezomib (first compound 5 µM) it was 1.31. Further, the relative viability is 0.798 with BAM7 + Bortezomib (first compound 15.81 µM); 1.21 with BAM7 + Bortezomib (first compound 50 µM); 0.802 with BAM7 + Olaparib (first compound 0.5 µM); 0.932 with BAM7 + Olaparib (first compound 5 µM); 0.547 with BAM7 + Olaparib (first compound 15.81 µM); 0.585 with BAM7 + Olaparib (first compound 50 µM). Further, the relative viability came to 0.451 in experiment [1] (first compound 0.01 µM); 0.526 in experiment [1] (first compound 0.03162 µM); 0.583 in experiment [1] (first compound 0.1 µM); 0.482 in experiment [1] (first compound 0.3162 µM); 0.353 in experiment [1] (first compound 1 µM).
Turning to NCI-H2347, the relative viability in the experiment with BAM7 + Pictilisib (first compound 0.5 µM) came out at 0.639; with BAM7 + Pictilisib (first compound 5 µM), 0.746; with BAM7 + Pictilisib (first compound 15.81 µM), 0.598; with BAM7 + Pictilisib (first compound 50 µM), 0.913; with BAM7 + Bortezomib (first compound 0.5 µM) it was 1; with BAM7 + Bortezomib (first compound 5 µM), 1.27. Moreover, the relative viability with BAM7 + Bortezomib (first compound 15.81 µM) was determined as 1.32; with BAM7 + Bortezomib (first compound 50 µM) it was 1.2; with BAM7 + Olaparib (first compound 0.5 µM), 0.588; with BAM7 + Olaparib (first compound 5 µM) it was 0.642; in the experiment with BAM7 + Olaparib (first compound 15.81 µM) it was 0.625; with BAM7 + Olaparib (first compound 50 µM), 0.601. Moreover, the relative viability in experiment [1] (first compound 0.01 µM) turned out to be 0.317; in experiment [1] (first compound 0.03162 µM) it was 0.264; in experiment [1] (first compound 0.3162 µM) it was 0.274; in experiment [1] (first compound 1 µM), 0.334.
With NCI-H2405, the relative viability with BAM7 + Pictilisib (first compound 0.5 µM) was determined as 0.438; with BAM7 + Pictilisib (first compound 5 µM), 0.557; in the experiment with BAM7 + Pictilisib (first compound 15.81 µM), 0.449; in the experiment with BAM7 + Pictilisib (first compound 50 µM), 0.538; with BAM7 + Bortezomib (first compound 0.5 µM), 1.02; with BAM7 + Bortezomib (first compound 5 µM) it was 1.04. Moreover, the relative viability was 1.01 with BAM7 + Bortezomib (first compound 15.81 µM); 0.991 with BAM7 + Bortezomib (first compound 50 µM); 0.936 with BAM7 + Olaparib (first compound 0.5 µM); 0.936 with BAM7 + Olaparib (first compound 5 µM); 0.889 with BAM7 + Olaparib (first compound 15.81 µM); 0.908 with BAM7 + Olaparib (first compound 50 µM). Besides, the relative viability in experiment [1] (first compound 0.01 µM) is 0.199; in experiment [1] (first compound 0.03162 µM), 0.216; in experiment [1] (first compound 0.1 µM), 0.216; in experiment [1] (first compound 0.3162 µM), 0.214; in experiment [1] (first compound 1 µM), 0.213.
Turning to NCI-H3122, the relative viability with BAM7 + Pictilisib (first compound 0.5 µM) came to 0.75; with BAM7 + Pictilisib (first compound 5 µM), 0.689; with BAM7 + Pictilisib (first compound 15.81 µM), 0.685; with BAM7 + Pictilisib (first compound 50 µM), 0.694; with BAM7 + Bortezomib (first compound 0.5 µM) it was 1.06; in the experiment with BAM7 + Bortezomib (first compound 5 µM), 1.13. Moreover, the relative viability in the experiment with BAM7 + Bortezomib (first compound 15.81 µM) was 1.04; with BAM7 + Bortezomib (first compound 50 µM), 1.05; with BAM7 + Olaparib (first compound 0.5 µM), 0.428; with BAM7 + Olaparib (first compound 5 µM) it was 0.579; with BAM7 + Olaparib (first compound 15.81 µM) it was 0.416; with BAM7 + Olaparib (first compound 50 µM), 0.53. In addition, the relative viability in experiment [1] (first compound 0.01 µM) was 0.68; in experiment [1] (first compound 0.03162 µM), 0.859; in experiment [1] (first compound 0.1 µM), 0.857; in experiment [1] (first compound 0.3162 µM), 0.852; in experiment [1] (first compound 1 µM) it was 0.637.
PC-3 [JPC-3]: the relative viability in the experiment with BAM7 + Pictilisib (first compound 0.5 µM) came to 0.693; with BAM7 + Pictilisib (first compound 5 µM), 0.736; with BAM7 + Pictilisib (first compound 15.81 µM), 0.612; in the experiment with BAM7 + Pictilisib (first compound 50 µM) it was 0.631; with BAM7 + Bortezomib (first compound 0.5 µM), 0.824; in the experiment with BAM7 + Bortezomib (first compound 5 µM), 0.751. Also, the relative viability is 0.782 with BAM7 + Bortezomib (first compound 15.81 µM); 0.585 with BAM7 + Bortezomib (first compound 50 µM); 1.12 with BAM7 + Olaparib (first compound 0.5 µM); 1.1 with BAM7 + Olaparib (first compound 5 µM); 1.06 with BAM7 + Olaparib (first compound 15.81 µM); 0.995 with BAM7 + Olaparib (first compound 50 µM). Also, the relative viability in experiment [1] (first compound 0.01 µM) stood at 0.932; in experiment [1] (first compound 0.03162 µM) it was 0.967; in experiment [1] (first compound 0.1 µM) it was 1.02; in experiment [1] (first compound 0.3162 µM), 0.986; in experiment [1] (first compound 1 µM), 0.902.
